Laboratory results: patent publication US12171755B2, “PAPD5 inhibitors and methods of use thereof” (Children's Medical Center Corporation, priority 2017, dated 2024)

Experiments:
[1] = target: T1, PAPD5 (Homo sapiens, UniProt Q8NDF8); experiment: PAPD5 oligonucleotide extension assay (gel), compound dose response vs ATP; type: biochemical; conditions: recombinant PAPD5 in vitro
T1 construct: made in house
Procedure: Candidate inhibitors are assayed at a range of concentrations in functional assays entailing extension of fluorescently-labelled RNA oligonucleotide substrates in the presence of PAPD5, followed by gel electrophoresis. […] In FIG. 5, a 20-mer 5′-fluorescently labelled RNA oligonucleotide was incubated with recombinant WT or mutant PAPD5 for 1 hour in the presence of varying concentrations of ATP, and products were visualized by polyacrylamide gel electrophoresis. It is expected that wildtype (WT) PAPD5 with PAPD5 inhibitors can have similar results. In fact, 4 compounds were selected to test the validation assay. The results were shown in FIG. 8, and were consistent with the expected results.
Each compound tested in the assay was tested at 0 μM, 5 μM, 10 μM, 50 μM, and 100 μM. At each concentration, each compound was tested at 0 μM, 10 μM, 100 μM, and 1000 μM concentration of ATP.

[2] = target: T2, PARN exonuclease (Homo sapiens, UniProt O95453); experiment: Counter-screen for inhibition of PARN exonuclease; type: biochemical
T2 sequence (O95453 1-639): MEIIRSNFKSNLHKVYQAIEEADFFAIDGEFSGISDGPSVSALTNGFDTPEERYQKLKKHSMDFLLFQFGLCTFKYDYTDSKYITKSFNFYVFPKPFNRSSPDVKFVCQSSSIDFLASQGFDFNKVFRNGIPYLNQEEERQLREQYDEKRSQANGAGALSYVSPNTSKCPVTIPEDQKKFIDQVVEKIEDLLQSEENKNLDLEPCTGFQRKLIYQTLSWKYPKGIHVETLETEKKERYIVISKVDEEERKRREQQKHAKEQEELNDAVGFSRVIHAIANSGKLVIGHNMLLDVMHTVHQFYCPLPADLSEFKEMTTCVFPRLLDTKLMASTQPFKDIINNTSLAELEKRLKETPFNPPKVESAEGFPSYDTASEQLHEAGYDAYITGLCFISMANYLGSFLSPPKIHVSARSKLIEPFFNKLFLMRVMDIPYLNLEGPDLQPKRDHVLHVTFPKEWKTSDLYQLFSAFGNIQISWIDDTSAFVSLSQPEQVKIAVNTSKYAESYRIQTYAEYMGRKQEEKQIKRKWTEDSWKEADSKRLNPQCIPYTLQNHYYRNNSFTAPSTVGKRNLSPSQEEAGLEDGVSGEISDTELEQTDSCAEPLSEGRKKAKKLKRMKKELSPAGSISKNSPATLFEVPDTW
Text: Although PARN and PAPD5 have opposing functions in TERC maturation and stabilization, PARN and PAPD5 are structurally related, and so molecules that inhibit one enzyme may inhibit the other.

[3] = test system: TERC 3′ end processing in HEK 293 with stable shRNA-mediated knockdown of PARN; experiment: TERC 3′ end processing (3′ RACE) in PARN-deficient HEK 293 cells; type: cell-based; conditions: PARN-deficient human cells (HEK 293, PARN shRNA knockdown), treated for 7 days; 10 µM and 100 μM; listed as entry 1 in table 1
Procedure: The expected amplicons representing mature TERC versus extended forms are indicated (arrows). […] HEK 293 with stable shRNA-mediated knockdown of PARN were treated for 7 days with the Table 5, entry 1 compound.

T1 sequence (Q8NDF8 68-698 isoform Q8NDF8-5): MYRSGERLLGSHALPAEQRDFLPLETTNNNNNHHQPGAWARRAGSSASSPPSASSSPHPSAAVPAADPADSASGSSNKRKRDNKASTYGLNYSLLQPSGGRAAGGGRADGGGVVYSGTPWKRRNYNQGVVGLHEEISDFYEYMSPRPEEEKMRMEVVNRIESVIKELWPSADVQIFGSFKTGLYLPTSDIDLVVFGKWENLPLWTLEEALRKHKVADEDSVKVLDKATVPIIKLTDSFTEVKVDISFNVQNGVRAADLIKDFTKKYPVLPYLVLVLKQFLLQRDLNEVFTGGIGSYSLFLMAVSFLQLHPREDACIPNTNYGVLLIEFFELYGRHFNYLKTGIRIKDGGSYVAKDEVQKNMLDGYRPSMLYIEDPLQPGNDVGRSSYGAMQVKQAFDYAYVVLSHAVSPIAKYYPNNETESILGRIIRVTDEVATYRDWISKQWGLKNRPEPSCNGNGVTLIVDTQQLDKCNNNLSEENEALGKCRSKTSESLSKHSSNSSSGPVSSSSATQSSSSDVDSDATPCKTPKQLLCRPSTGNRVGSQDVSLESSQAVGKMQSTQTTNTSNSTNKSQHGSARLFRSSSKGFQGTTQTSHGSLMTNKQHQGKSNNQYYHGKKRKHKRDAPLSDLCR

| Compound | inhibition of PAPD5 (in words) [1] | inhibition of PARN exonuclease (in words) [2] | restoration of TERC 3′ end processing / maturation (in words) [3] |
| --- | --- | --- | --- |
| CCOC(=O)c1cnc2ccc(OC(F)(F)F)cc2c1Nc1ccccc1C(=O)O [entry 1 in Table 5, 2-[[3-ethoxycarbonyl-6-(trifluoromethoxy)quinolin-4-yl]amino]benzoic acid] | inhibit PAPD5 | do not inhibit PARN |  |
| CCOC(=O)c1cnc2ccc(OC(F)(F)F)cc2c1Nc1ccccc1C(=O)O [Entry 1, 2-[[3-ethoxycarbonyl-6-(trifluoromethoxy)quinolin-4-yl]amino]benzoic acid] |  |  | restoration of TERC maturation that is similar to that achieved by PAPD5 knockdown |
| CCc1ccc2ncc(C(=O)c3ccc(C)c(C)c3)c(N3CCC(C(N)=O)CC3)c2c1 [entry 2 in Table 5, 1-[3-(3,4-dimethylbenzoyl)-6-ethylquinolin-4-yl]piperidine-4-carboxamide] | inhibit PAPD5 | do not inhibit PARN |  |
